In US6891043B2, “Inhibitors of fatty acid amide hydrolase” (The Scripps Research Institute, priority 2000, dated 2005):
“Also recorded” adds a separate entry of the source.

Tests used:
FAAH [1] = molecular target: T1, FAAH (Homo sapiens, UniProt O00519); conditions: FAAH substrate preference; cited from earlier work
T1 sequence (O00519 1-579): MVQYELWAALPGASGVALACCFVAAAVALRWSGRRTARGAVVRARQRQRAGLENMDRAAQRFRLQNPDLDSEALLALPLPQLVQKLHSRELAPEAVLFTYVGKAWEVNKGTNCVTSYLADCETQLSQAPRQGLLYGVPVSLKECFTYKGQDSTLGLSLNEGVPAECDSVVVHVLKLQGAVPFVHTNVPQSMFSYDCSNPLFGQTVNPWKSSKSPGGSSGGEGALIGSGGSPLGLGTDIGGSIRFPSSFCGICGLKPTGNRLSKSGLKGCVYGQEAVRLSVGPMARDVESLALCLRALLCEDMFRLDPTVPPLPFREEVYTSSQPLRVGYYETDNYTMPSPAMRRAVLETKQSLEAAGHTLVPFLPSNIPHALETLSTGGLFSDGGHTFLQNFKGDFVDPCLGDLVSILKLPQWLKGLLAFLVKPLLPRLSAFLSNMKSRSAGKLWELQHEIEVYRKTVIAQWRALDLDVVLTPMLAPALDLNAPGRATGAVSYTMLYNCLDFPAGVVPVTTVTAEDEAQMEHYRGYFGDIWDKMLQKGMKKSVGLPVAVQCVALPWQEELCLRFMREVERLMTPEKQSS

FAAH [2] = molecular target: T2, FAAH (Rattus norvegicus, UniProt P97612); experiment: FAAH inhibition: breakdown of 14C-oleamide to oleic acid, solubilized liver plasma membrane extract; assay type: biochemical; conditions: for Ki: Dixon method, 14C-oleamide substrate, pH 9.0, 20-23° C., read-out: K1
T2 construct: using a solubilized liver plasma membrane extract containing FAAH; from tissue; host or cells: liver (solubilized plasma membrane extract)
T2 sequence (P97612 1-579): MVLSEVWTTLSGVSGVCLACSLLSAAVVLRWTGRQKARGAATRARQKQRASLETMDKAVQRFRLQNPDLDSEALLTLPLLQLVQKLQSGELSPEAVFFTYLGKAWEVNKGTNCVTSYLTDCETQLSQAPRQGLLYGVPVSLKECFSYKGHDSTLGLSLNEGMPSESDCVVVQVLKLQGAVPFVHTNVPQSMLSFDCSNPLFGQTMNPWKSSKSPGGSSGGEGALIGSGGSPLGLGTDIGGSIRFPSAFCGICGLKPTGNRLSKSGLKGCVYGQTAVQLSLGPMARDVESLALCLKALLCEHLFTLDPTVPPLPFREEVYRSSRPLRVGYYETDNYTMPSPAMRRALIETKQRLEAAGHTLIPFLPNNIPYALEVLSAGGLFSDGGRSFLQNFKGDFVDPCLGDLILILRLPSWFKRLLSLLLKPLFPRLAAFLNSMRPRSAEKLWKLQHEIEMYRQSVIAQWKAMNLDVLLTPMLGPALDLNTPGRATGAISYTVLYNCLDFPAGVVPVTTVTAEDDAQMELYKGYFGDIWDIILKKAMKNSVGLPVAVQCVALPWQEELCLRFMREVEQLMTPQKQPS
Procedure: K1 values were determined by the Dixon method α-intercepts of weighted linear fits of […] plots at constant substrate concentration, which were converted to K1 values using the formula K1=−xint/[1+[S]/Km]).

treated animals = experiment: In vivo sleep study with 17 (wakefulness, SWS2, REM sleep); conditions: 10 mg/kg ip, first 4 h of administration, versus controls
Description: The in vivo properties of the inhibitors detailed herein and their action on the identified oleamide and anandamide potential sites of action are presented herein. […] Accordingly, the inhibitors disclosed herein are useful as inhibitors of FAAH and related amidases, and as a therapeutic agents with applications as sleep aids or analgesics which act by preserving endogenous levels of oleamide and anandamide.

Row | SMILES | FAAH inhibitor potency / activity in words (FAAH [2]) | melting point [°C] | also measured
1 | CCCCC/C=C\C/C=C\C/C=C\C/C=C\CCCC(N)=O [arachidonamide] | – | – | rel. rate of hydrolysis (FAAH [1]): 1
2 | CCCCCCCC/C=C\CCCCCCCC(=O)c1nnn(C)n1 [compound 14, 1-(2-Methyl-2H-tetrazol-5-yl)-1-oxo-9(Z)-octadecene] | matched the potency of the trifluoromethyl ketone 3 | – | –
3 | CCCCCCCC/C=C\CCCCCCCC(=O)c1cccnn1 [compound 17, 1-Oxo-1-(3-pyridazinyl)-9(Z)-octadecene] | more potent than 33 and 35, respectively | – | decrease of time spent in wakefulness, of the total time (treated animals): 14%; increase of time spent in REM sleep (treated animals): 75%; increase of time spent in REM sleep, of total time (treated animals): 4%; increase of time spent in SWS2 (treated animals): 45%; increase of time spent in SWS2, of the total time (treated animals): 10%; reduction of time spent in wakefulness (treated animals): 20%
4 | CCCCCCCC/C=C\CCCCCCCC(=O)c1nc2ccccc2o1 [compound 23, 1-(2-Benzoxazolyl)-1-oxo-9(Z)-octadecene] | more potent than 37 | – | –
5 | CCCCCCCC/C=C\CCCCCCCC(=O)c1nc2cccc(C)c2o1 [compound 28, 1-(7-Methylbenzoxazol-2-yl)-1-oxo-9(Z)-octadecene] | greatly diminished | – | –
6 | CCCCCCCC/C=C\CCCCCCCC(=O)c1nc2ncccc2o1 [compound 29, 1-(Oxazolo[4,5-b]pyridin-2-yl)-1-oxo-9(Z)-octadecene] | most potent inhibitor; also recorded: more potent than 33 and 35, respectively | – | –
7 | CCCCCCCC/C=C/CCCCCCCC(=O)c1nc2ncccc2o1 [compound 33, 1-(Oxazolo[4,5-b]pyridin-2-yl)-1-oxo-9(E)-octadecene] | more potent than 34 and 36 | – | –
8 | CCCCCCCC/C=C/CCCCCCCC(=O)c1cccnn1 [compound 35, 1-Oxo-1-(3-pyridazinyl)-9(E)-octadecene] | more potent than 34 and 36 | – | –
9 | CCCCCCCCCCCCCCCC(=O)c1nc2ncccc2o1 [compound 42, 1-(Oxazolo[4,5-b]pyridin-2-yl)-1-oxo-hexadecane] | – | 77 to 78 | –
10 | CCCCCCCCCCCCCC(=O)c1nc2ncccc2o1 [compound 43, 1-(Oxazolo[4,5-b]pyridin-2-yl)-1-oxo-tetradecane] | – | 73 to 74 | –
11 | CCCCCCCCCCCC(=O)c1nc2ncccc2o1 [compound 44, 1-(Oxazolo[4,5-b]pyridin-2-yl)-1-oxo-dodecane] | – | 68 to 69 | –
12 | CCCCCCCCCC(=O)c1nc2ncccc2o1 [compound 45, 1-(Oxazolo[4,5-b]pyridin-2-yl)-1-oxo-decane] | – | 60 to 62 | –
13 | CCCCCCCC(=O)c1nc2ncccc2o1 [compound 46, 1-(Oxazolo[4,5-b]pyridin-2-yl)-1-oxo-octane] | – | 60 to 61 | –
14 | CCCCCCC(=O)c1nc2ncccc2o1 [compound 47, 1-(Oxazolo[4,5-b]pyridin-2-yl)-1-oxo-heptane] | – | 52 to 53 | –
15 | CCCCCC(=O)c1nc2ncccc2o1 [compound 48, 1-(Oxazolo[4,5-b]pyridin-2-yl)-1-oxo-hexane] | – | 51 to 53 | –
16 | CCCCC(=O)c1nc2ncccc2o1 [compound 49, 1-(Oxazolo[4,5-b]pyridin-2-yl)-1-oxo-pentane] | – | 35 to 37 | –
17 | CC(=O)c1nc2ncccc2o1 [compound 50, 1-(Oxazolo[4,5-b]pyridin-2-yl)-1-oxo-ethane] | – | 103 to 105 | –
18 | O=C(CCCCCc1ccccc1)c1nc2ncccc2o1 [compound 53, 1-(Oxazolo[4,5-b]pyridin-2-yl)-1-oxo-6-phenylhexane] | – | 61 to 63 | Ki (FAAH [2]): < 0.2 nM
19 | O=C(CCCCCCc1ccccc1)c1nc2ncccc2o1 [compound 54, 1-(Oxazolo[4,5-b]pyridin-2-yl)-1-oxo-7-phenylheptane] | – | 60 to 61 | –
20 | O=C(CCCCCCCc1ccccc1)c1nc2ncccc2o1 [compound 55, 1-(Oxazolo[4,5-b]pyridin-2-yl)-1-oxo-8-phenyloctane] | – | 70 to 73 | –
21 | CCCCCCCCCCCC(O)c1nc2ncccc2o1 (stereo not shown) [compound 60, 1-Hydroxy-1-(oxazolo[4,5-b]pyridin-2-yl)dodecane] | – | – | Ki (FAAH [2]): 1200 nM; times less potent than the corresponding keto derivative (reduction to alcohol) (FAAH [2]; α-hydroxy versus α-keto): approximately 10^3 times
22 | CCCCCCCCCCCCCCCCCCc1nc2ncccc2o1 [compound 61, 1-(Oxazolo[4,5-b]pyridin-2-yl)octadecane] | inactive | 84 to 85 | additional fold loss of binding affinity with removal of the alcohol (FAAH [2]; versus α-hydroxy compound): 10^2 fold; fold loss of binding affinity / potency with removal of the keto group (FAAH [2]; versus α-keto compound): 10^5 fold
23 | CCCCCCCC/C=C\CCCCCCCC(N)=O [oleamide] | – | – | rel. rate of hydrolysis (FAAH [1]): 0.7
